Results taken from patent publication US11453660B2, “Androgen receptor and glucocorticoid receptor modulators” (ONCOSTELLAE, S.L., priority 2017, dated 2022).
pIC50: −log10 of the molar value.

Key:
human androgen receptor = molecular target: T1, human androgen receptor (Homo sapiens, UniProt P10275, T878A); test: Human Androgen Receptor Binding (radioligand binding, LnCap prostate cancer cell line); settings: LnCap cells, displacement of [^3H]-methyltrienolone, 2 hours at 37° C.; read-out: AR LNCaP
T1 construct: endogenously expressed human androgen receptor using the LnCap prostate cancer cell line; endogenous in cells; host or cells: LNCaP prostate cancer cell line (whole cells)
T1 sequence (P10275 1-920 T878A): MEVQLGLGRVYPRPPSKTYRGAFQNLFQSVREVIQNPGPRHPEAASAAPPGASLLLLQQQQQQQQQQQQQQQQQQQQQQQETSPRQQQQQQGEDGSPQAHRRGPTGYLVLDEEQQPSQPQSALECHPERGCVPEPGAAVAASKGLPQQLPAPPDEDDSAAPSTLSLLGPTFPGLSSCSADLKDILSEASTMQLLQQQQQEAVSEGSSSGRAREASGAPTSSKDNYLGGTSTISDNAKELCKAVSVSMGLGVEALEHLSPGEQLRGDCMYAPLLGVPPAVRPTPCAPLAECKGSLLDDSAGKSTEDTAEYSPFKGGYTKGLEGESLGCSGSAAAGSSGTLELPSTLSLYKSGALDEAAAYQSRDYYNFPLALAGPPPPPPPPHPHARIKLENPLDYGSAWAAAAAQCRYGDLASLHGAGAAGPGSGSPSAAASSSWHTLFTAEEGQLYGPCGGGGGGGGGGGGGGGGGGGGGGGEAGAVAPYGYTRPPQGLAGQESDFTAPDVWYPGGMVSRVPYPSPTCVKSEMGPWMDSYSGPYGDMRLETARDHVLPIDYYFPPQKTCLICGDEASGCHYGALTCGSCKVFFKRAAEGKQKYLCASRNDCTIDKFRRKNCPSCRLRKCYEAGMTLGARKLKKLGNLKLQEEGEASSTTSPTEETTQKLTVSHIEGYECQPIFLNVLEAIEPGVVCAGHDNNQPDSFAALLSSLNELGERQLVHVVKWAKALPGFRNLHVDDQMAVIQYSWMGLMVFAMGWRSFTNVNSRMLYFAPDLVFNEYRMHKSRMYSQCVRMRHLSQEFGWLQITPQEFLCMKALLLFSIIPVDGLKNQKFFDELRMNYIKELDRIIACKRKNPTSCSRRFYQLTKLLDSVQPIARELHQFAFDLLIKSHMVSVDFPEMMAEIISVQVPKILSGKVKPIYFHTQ
Summary of the method: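 Whole-cell displacement of [3H]-methyltrienolone from endogenous AR (T878A) in LnCap cells, in RPMI with 0.1% BSA and triamcinolone acetonide. Compounds 10 μM to 0.1 nM in 1:10 steps, 2 h at 37 °C; cells washed, SDS-lysed, bound radioactivity by scintillation counting for IC50.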

[1] = molecular target: T2, Human Glucocorticoid Receptor (Homo sapiens, UniProt P04150); test: Competition Binding in IM-9 Human Glucocorticoid Receptor (GR IM-9); settings: cytosol from IM-9 cell line, 1.5 nM [3H]-Dexamethasone, 4° C. for 6 hours
T2 construct: endogenous in cells; host or cells: cytosol from IM-9 cell line
T2 sequence (P04150 1-777): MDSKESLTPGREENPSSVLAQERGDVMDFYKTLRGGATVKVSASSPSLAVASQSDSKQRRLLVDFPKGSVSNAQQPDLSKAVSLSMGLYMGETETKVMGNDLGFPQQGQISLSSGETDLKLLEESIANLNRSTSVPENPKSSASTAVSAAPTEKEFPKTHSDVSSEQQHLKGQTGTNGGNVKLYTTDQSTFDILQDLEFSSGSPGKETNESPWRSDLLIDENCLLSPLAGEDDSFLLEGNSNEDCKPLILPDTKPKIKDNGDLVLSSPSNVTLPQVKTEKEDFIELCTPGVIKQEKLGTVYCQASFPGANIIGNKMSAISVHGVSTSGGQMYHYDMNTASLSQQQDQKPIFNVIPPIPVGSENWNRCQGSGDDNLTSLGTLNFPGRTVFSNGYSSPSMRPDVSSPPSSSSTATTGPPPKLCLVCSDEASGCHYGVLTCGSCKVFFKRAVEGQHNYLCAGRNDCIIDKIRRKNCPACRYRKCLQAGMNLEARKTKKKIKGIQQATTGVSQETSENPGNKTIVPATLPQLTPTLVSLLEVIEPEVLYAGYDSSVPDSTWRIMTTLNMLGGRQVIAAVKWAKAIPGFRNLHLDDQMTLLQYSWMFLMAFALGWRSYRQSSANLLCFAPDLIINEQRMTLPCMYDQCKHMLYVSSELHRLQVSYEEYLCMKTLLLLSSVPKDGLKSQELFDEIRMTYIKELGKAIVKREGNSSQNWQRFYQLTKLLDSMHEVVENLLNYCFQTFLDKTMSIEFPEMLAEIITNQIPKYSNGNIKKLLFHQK
Summary of the method: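 Radioligand competition using 100 μg IM-9 cell cytosol and 1.5 nM [3H]-dexamethasone, incubated 6 h at 4° C in TES/molybdate buffer, pH 7.4. Filtration on PEI-treated GF/B filters, scintillation counting; nonspecific binding defined with 10 μM triamcinolone.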

| SMILES | pIC50 (human androgen receptor) | pIC50 [1] |
| --- | --- | --- |
| CC1=C(C(=O)C2CC2)C(c2csc3c(C#N)cccc23)C(C(=O)OCC2CC2)=C(N)N1 (stereo not drawn) [Example D31, Cyclopropylmethyl 2-amino-4-(7-cyanobenzo[b]thiophen-3-yl)-5-(cyclopropanecarbonyl)-6-methyl-1,4-dihydropyridine-3-carboxylate] | 6.00 to 7.00 | > 7.00 |
| COC(=O)C1=C(C)NC(C=O)=C(C(=O)OC)C1c1csc2c(C#N)cccc12 (stereo not drawn) [Example C119, Dimethyl 4-(7-cyanobenzo[b]thiophen-3-yl)-2-formyl-6-methyl-1,4-dihydropyridine-3,5-dicarboxylate] | ≤ 6.00 | > 7.00 |
| CC(=O)C1=C(C)NC(C)=C(C(=O)OCc2ccc(C#N)cc2)C1c1csc2ncccc12 (stereo not drawn) [Example C73, 4-cyanobenzyl 5-acetyl-2,6-dimethyl-4-(thieno[2,3-b]pyridin-3-yl)-1,4-dihydropyridine-3-carboxylate] | ≤ 6.00 | > 7.00 |
| COC(=O)C1=C(C2CC2)NC(C)=C(C(C)=O)C1c1csc2ncccc12 (stereo not drawn) [Example J23, Methyl 5-acetyl-2-cyclopropyl-6-methyl-4-(thieno[2,3-b]pyridin-3-yl)-1,4-dihydropyridine-3-carboxylate] | > 7.00 | 6.00 to 7.00 |
| CC(=O)C1=C(C)NC(C2CC2)=C(C(=O)OCc2ccncc2)C1c1csc2c(Br)cccc12 (stereo not drawn) [Example J41, Pyridin-4-ylmethyl 5-acetyl-4-(7-bromobenzo[b]thiophen-3-yl)-2-cyclopropyl-6-methyl-1,4-dihydropyridine-3-carboxylate] | > 7.00 | > 7.00 |
| CC1=C(C(=O)OCC2CC2)C(c2csc3c(C#N)cccc23)C(C(=O)OCC2CC2)=C(N)N1 (stereo not drawn) [Example D46, Bis(cyclopropylmethyl) 2-amino-4-(7-cyanobenzo[b]thiophen-3-yl)-6-methyl-1,4-dihydropyridine-3,5-dicarboxylate] | ≤ 6.00 | > 7.00 |
| CC(=O)C1=C(C)NC(C)=C(C(=O)OCC2CCOCC2)C1c1csc2ccc(F)cc12 (stereo not drawn) [Example C44, (Tetrahydro-2H-pyran-4-yl)methyl 5-acetyl-4-(5-fluorobenzo[b]thiophen-3-yl)-2,6-dimethyl-1,4-dihydropyridine-3-carboxylate] | ≤ 6.00 | 6.00 to 7.00 |
| CC(=O)C1=C(C)NC(C)=C(C(=O)OCc2ccc(-c3cccnc3)cc2)C1c1csc2ncccc12 (stereo not drawn) [Example L2, 4-(pyridin-3-yl)benzyl 5-acetyl-2,6-dimethyl-4-(thieno[2,3-b]pyridin-3-yl)-1,4-dihydropyridine-3-carboxylate] | ≤ 6.00 | > 7.00 |
| CC(=O)C1=C(C)NC(C)=C(C(=O)OCC2CCOCC2)C1c1csc2ccccc12 (stereo not drawn) [Example C2, (Tetrahydro-2H-pyran-4-yl)methyl 5-acetyl-4-(benzo[b]thiophen-3-yl)-2,6-dimethyl-1,4-dihydropyridine-3-carboxylate] | ≤ 6.00 | 6.00 to 7.00 |
| CC(=O)C1=C(C)NC(C)=C(C(=O)OCc2cccc(Br)c2)C1c1csc2ncccc12 (stereo not drawn) [Example C66, 3-bromobenzyl 5-acetyl-2,6-dimethyl-4-(thieno[2,3-b]pyridin-3-yl)-1,4-dihydropyridine-3-carboxylate] | 6.00 to 7.00 | > 7.00 |
| CC(=O)C1=C(C)NC(C2CC2)=C(C(=O)OCc2ccc(F)cc2)C1c1csc2ncccc12 (stereo not drawn) [Example J42, 4-fluorobenzyl 5-acetyl-2-cyclopropyl-6-methyl-4-(thieno[2,3-b]pyridin-3-yl)-1,4-dihydropyridine-3-carboxylate] | 6.00 to 7.00 | > 7.00 |
| CC1=C(C#N)C(c2csc3c(C#N)cccc23)C(C(=O)OCC2CC2)=C(N)N1 (stereo not drawn) [Example D24, cyclopropylmethyl 2-amino-5-cyano-4-(7-cyanobenzo[b]thiophen-3-yl)-6-methyl-1,4-dihydropyridine-3-carboxylate] | 6.00 to 7.00 | > 7.00 |
